Experimental data as given in US20220087987A1, “A METHOD FOR TREATING SWI/SNF COMPLEX-DEFICIENT CANCERS COMPRISING GLUTATHIONE (GSH) METABOLIC PATHWAY INHIBITOR” (National Cancer Center, priority 2018, published 2022).
Structures can show the parent of a compound that is named as a salt. Where two headings read alike, the source gives them in different places. Peptide text beside a SMILES is read from it. * marks the point of attachment. Cbz = O=C(OCc1ccccc1)*; CH2Cl = ClC*; CH2F = FC*

Columns and labels:
Format in all cases: cell-based, human
[1] = Drug library screen, cell viability (CellTiter-Glo); design: key to Cell viability, WT: % viability relative to DMSO solvent-treated cells; settings: human; HCT116 ARID1A-WT; 10 μM for 5 days; relative to cells treated with solvent (DMSO); read-out: Cell viability, WT
Procedure: (§1) ARID1A-WT and ARID1A-KO HCT116 cancer cells were used for screening assays. […] Cell viability was assessed after 5 days using the CellTiter-Glo Luminescent Cell Viability Assay (Promega). Luminescence was measured using an Envision Multi-label plate reader (PerkinElmer). The luminescence reading was used to determine the cell viability relative to that of cells treated with solvent (DMSO). Candidate compounds were considered if viability of ARID1A-KO cells was less than […] was more than 80%.

ARID1A-KO HCT116 cells = test: as above; design: key to Cell viability, KO: % viability relative to DMSO solvent-treated cells; settings: for viability at 10 µM: Homo sapiens, HCT-116, 120 h, read-out: Cell viability, KO
Procedure: as §1

ARID1A-WT HCT116 cells = test: as above; design: key to Cell viability, WT: % viability relative to DMSO solvent-treated cells
Procedure: as §1

[2] = HCT116 ARID1A-KO, 10 μM for 5 days, relative to cells treated with solvent (DMSO)
[3] = HCT116 ARID1A-WT, 10 μM for 5 days, relative to cells treated with solvent (DMSO)

| Compound | Cell viability, WT (ARID1A-WT HCT116 cells; [3]) | Cell viability, KO (ARID1A-KO HCT116 cells; [2]) | also measured |
| --- | --- | --- | --- |
| C[C@H]1O[C@@H](n2cnc3c(N)ncnc32)C[C@@H]1O [2′,5′-dideoxyadenosine] |  |  | viability [1]: 198%; viability at 10 µM (ARID1A-KO HCT116 cells; [2]): 172% |
| Cc1ncc2ccccc2c1C#N [4-cyano-3-methylisoquinoline] |  |  | viability at 5 days, 10 μM [1]: 143%; viability at 10 µM (ARID1A-KO HCT116 cells; [2]): 164% |
| CNc1ccc2oc(C[C@H]3O[C@@]4(CC[C@H]3C)O[C@H]([C@H](C)C(=O)c3ccc[nH]3)[C@H](C)C[C@H]4C)nc2c1C(=O)O [A23187] |  |  | viability [1]: 6.25%; viability at 10 µM (ARID1A-KO HCT116 cells; [2]): 8.67% |
| CN(C)CC[C@H](CSc1ccccc1)Nc1ccc(S(=O)(=O)NC(=O)c2ccc(N3CCN(Cc4ccccc4-c4ccc(Cl)cc4)CC3)cc2)cc1[N+](=O)[O-] [ABT-737] |  |  | viability at 5 days, 10 μM [1]: 94.4%; viability at 10 µM (ARID1A-KO HCT116 cells; [2]): 89.5% |
| C[C@]1(c2nc3c(C(N)=O)cccc3[nH]2)CCCN1 [ABT-888 (Veliparib), Veliparib] |  |  | viability at 5 days, 10 μM [1]: 62.7%; viability at 10 µM (ARID1A-KO HCT116 cells; [2]): 53.3% |
| CNCc1ccc(-c2[nH]c3cc(F)cc4c3c2CCNC4=O)cc1 [AG014699 (Rucaparib), Rucaparib] |  |  | viability at 5 days, 10 μM [1]: 18.7%; viability at 10 µM (ARID1A-KO HCT116 cells; [2]): 16% |
| CC[C@@]1(O)C[C@H](O[C@H]2C[C@H](N(C)C)[C@H](O[C@H]3C[C@H](O)[C@H](O[C@H]4CCC(=O)[C@H](C)O4)[C@H](C)O3)[C@H](C)O2)c2c(cc3c(c2O)C(=O)c2c(O)cccc2C3=O)[C@H]1C(=O)OC [Aclarubicin] |  |  | viability [1]: 4.48%; viability at 10 µM (ARID1A-KO HCT116 cells; [2]): 5.53% |
| CCCCC[C@H](CC(=O)NO)C(=O)N[C@H](C(=O)N1CCC[C@H]1CO)C(C)C [Actinonin] |  |  | viability at 5 days, 10 μM [1]: 88.5%; viability at 10 µM (ARID1A-KO HCT116 cells; [2]): 103% |
| CC(C)C[C@@H](N)[C@H](O)C(=O)N[C@H](C(=O)N[C@H](C(=O)N[C@@H](CC(=O)O)C(=O)O)C(C)C)C(C)C [Amastatin] |  |  | viability at 5 days, 10 μM [1]: 102%; viability at 10 µM (ARID1A-KO HCT116 cells; [2]): 110% |
| N=C(N)NC(=O)c1nc(Cl)c(N)nc1N [Amiloride] |  |  | viability at 5 days, 10 μM [1]: 106%; viability at 10 µM (ARID1A-KO HCT116 cells; [2]): 113% |
| CCC1(c2ccc(N)cc2)CCC(=O)NC1=O (stereo not drawn) [Aminoglutethimide] |  |  | viability at 5 days, 10 μM [1]: 108%; viability at 10 µM (ARID1A-KO HCT116 cells; [2]): 107% |
| N=C(N)NN [Aminoguanidine, HCl] |  |  | viability at 5 days, 10 μM [1]: 188%; viability at 10 µM (ARID1A-KO HCT116 cells; [2]): 128% |
| C[C@@]1(CO)[C@H](O)CC[C@@]2(C)[C@H]1CC[C@H]1C[C@@H]3C[C@@]12CC[C@]3(O)CO [Aphidicolin] |  |  | viability at 5 days, 10 μM [1]: 14%; viability at 10 µM (ARID1A-KO HCT116 cells; [2]): 11.9% |
| CNC(=O)c1ccccc1Sc1ccc2c(/C=C/c3ccccn3)n[nH]c2c1 [Axitinib] |  |  | viability at 5 days, 10 μM [1]: 36.4%; viability at 10 µM (ARID1A-KO HCT116 cells; [2]): 42.6% |
| COc1cc2nc(N3CCCN(C)CC3)nc(NC3CCN(Cc4ccccc4)CC3)c2cc1OC [BIX01294] |  |  | viability at 5 days, 10 μM [1]: 2.57%; viability at 10 µM (ARID1A-KO HCT116 cells; [2]): 4.49% |
| Cc1ccc2nc(NCCN)c3ncc(C)n3c2c1 [BMS-345541] |  |  | viability at 5 days, 10 μM [1]: 11.9%; viability at 10 µM (ARID1A-KO HCT116 cells; [2]): 19.7% |
| NC(=O)c1ccc(I)c([N+](=O)[O-])c1 [BSI-201 (Iniparib), Iniparib] |  |  | viability at 5 days, 10 μM [1]: 63.5%; viability at 10 µM (ARID1A-KO HCT116 cells; [2]): 93.3% |
| C[S+]([O-])c1ccc(-c2nc(-c3ccc(F)cc3)c(-c3ccncc3)[nH]2)cc1 (stereo not drawn) [SB 203580] | 163.1226 | 176.0802 |  |
| O=C1NC(=O)c2c1c1c3ccccc3n3c1c1c2c2ccccc2n1C1CCC3O1 [SB 218078] | 101.994 | 109.2807 |  |
| O=C(Nc1ccc([N+](=O)[O-])cc1O)Nc1ccccc1Br [SB 225002] | 5.2146 | 8.056 |  |

| Compound | Cell viability, WT (ARID1A-WT HCT116 cells; [3]) | Cell viability, KO (ARID1A-KO HCT116 cells; [2]) | also measured |
| --- | --- | --- | --- |
| COC(=O)[C@H](Cc1ccc([N+](=O)[O-])cc1)NC(=O)c1cccc2ccccc12 [SB 328437] | 104.1947 | 112.6489 |  |
| NC(=O)c1ccc(-c2nc(-c3ccccn3)c(-c3ccc4c(c3)OCO4)[nH]2)cc1 [SB 431542] | 85.04 | 85.02 |  |
| Fc1ccc(Cl)cc1-c1nc(Nc2ccncc2)c2nccnc2n1 [SD208] | 73.72 | 78.9 |  |
| NC(=O)C1CCCc2c1[nH]c1ccc(Cl)cc21 (stereo not drawn) [SIRT1 inhibitor III] | 92.15 | 98.94 |  |
| CC(C)c1cc(/C=C(\C#N)C(=O)NCCCc2ccccc2)cc(C(C)C)c1O [SU1498] | 165.2374 | 119.3751 |  |
| O=CN1CCN(c2ccc(/C=C3\C(=O)Nc4ccccc43)cc2)CC1 [SU4984] | 129.369 | 172.2779 |  |
| Cc1c[nH]c(/C=C2\C(=O)Nc3ccccc32)c1CCC(=O)O [SU5402] | 110.6763 | 139.2404 |  |
| CN(C)S(=O)(=O)c1ccc2c(c1)/C(=C/c1cc3c([nH]1)CCCC3)C(=O)N2 [SU6656] |  |  | Cell viability, WT (ARID1A-WT HCT116 cells): 124.1846; Cell viability, KO (ARID1A-KO HCT116 cells): 170.9958 |
| Cc1[nH]c(/C=C2\C(=O)Nc3ccc(S(=O)(=O)N(C)c4cccc(Cl)c4)cc32)c(C)c1C(=O)N1CCN(C)CC1 [SU11274] | 71.94 | 82.98 |  |
| CCN(CC)CCNC(=O)c1c(C)[nH]c(/C=C2\C(=O)Nc3ccc(Cl)cc32)c1C [SU11652] | 4.735 | 8.987 |  |
| Cn1cc(/C=C2\C(=O)Nc3ccc(S(N)(=O)=O)cc32)c2ccccc21 [Syk inhibitor] |  |  | Cell viability, WT (ARID1A-WT HCT116 cells): 58.62; Cell viability, KO (ARID1A-KO HCT116 cells): 91.09 |
| Brc1c(Br)c(Br)c2n[nH]nc2c1Br [TBB] | 187.1148 | 147.5332 |  |
| CCN1/C(=C/C(C)=O)Sc2ccc(OC)cc21 [TG003] | 115.1966 | 138.6968 |  |
| Cc1cccc(-c2[nH]ncc2-c2ccc3ncccc3n2)n1 [TGF-b RI kinase inhibitor II] | 90.9 | 104.5326 |  |
| C[n+]1ccc(-c2c3nc(c(-c4cc[n+](C)cc4)c4ccc([nH]4)c(-c4cc[n+](C)cc4)c4ccc([nH]4)c(-c4cc[n+](C)cc4)c4nc2C=C4)C=C3)cc1 [TMPyP4] | 19.35 | 32.37 |  |
| CCCCCCCCCCCCCCOc1ccc(C(=O)O)o1 [TOFA] | 75.72 | 74.56 |  |
| Nc1cccc(-c2cc3c(Oc4cccc(O)c4)ncnc3[nH]2)c1 [TWS119] |  |  | Cell viability, WT (ARID1A-WT HCT116 cells): 30.07; Cell viability, KO (ARID1A-KO HCT116 cells): 23.39 |
| Cc1cc(C=C2C(=O)C=CC2=O)cc(C)c1O [TX-1918] | 117.0659 | 173.7673 |  |
| CN(C)CCCCC(=O)Nc1ccc(NC(=S)NC(=O)c2ccc(C(C)(C)C)cc2)cc1 [Tenovin-6] | 2.514 | 5.579 |  |
| O=C(NCc1ccccc1)c1csc(Nc2ccncn2)n1 [Thiazovivin] | 50.22 | 30.49 |  |

| Compound | Cell viability, WT (ARID1A-WT HCT116 cells; [3]) | Cell viability, KO (ARID1A-KO HCT116 cells; [2]) | also measured |
| --- | --- | --- | --- |
| CC(C)n1nc(-c2cc3cc(O)ccc3[nH]2)c2c(N)ncnc21 [Torkinib] | 8.777 | 9.988 |  |
| CC(/C=C/C(=O)NO)=C\[C@@H](C)C(=O)c1ccc(N(C)C)cc1 [Trichostatin A] | 6.352 | 5 |  |
| CCOC(=O)c1c(C)[nH]c(/C=C2\C(=O)Nc3ccccc32)c1C [VEGF recptor 2 kinase inhibitor I] | 106.2493 | 109.4563 |  |
| CC(C)C[C@H](NC(=O)CNC(=O)OCc1ccccc1)C(=O)N[C@@H](Cc1ccccc1)C(=O)CCl [Z-GLF-CMK] (Cbz-Gly-Leu-Phe-CH2Cl) | 4.255 | 4.8907 |  |
| COC(=O)C[C@H](NC(=O)[C@H](C)NC(=O)[C@@H](NC(=O)OCc1ccccc1)C(C)C)C(=O)CF [Z-VAD-FMK] (Cbz-Val-Ala-Asp(OMe)-CH2F) | 177.3841 | 128.7264 |  |
| Cc1ccc(NC(=O)c2cccc(N(C)C)c2)cc1NC(=O)c1ccc(O)cc1 [ZM 336372] | 121.6939 | 179.4192 |  |
| C[C@H]1CCC/C=C/[C@@H]2C[C@H](O)C[C@H]2[C@H](O)/C=C/C(=O)O1 [brefeldin A] | 1.838 | 4.578 |  |
| c1cc(-c2cnn3cc(-c4ccc(OCCN5CCCCC5)cc4)cnc23)ccn1 [compound C] | 6.447 | 9.381 |  |
| Akt Inhibitor IV | 3.276 | 5.523 |  |
| Antimycin A1 | 4.328 | 7.111 |  |
| Bleomycin sulfate | 27.28 | 30.2 |  |
| Cytostatin | 10.14 | 7.493 |  |
| GSK-3 inhibitor IX | 105.4779 | 147.7846 |  |
| MEK inhibitor I | 77.6 | 117.4589 |  |
| Tamoxifen, citrate | 24.8 | 18.66 |  |
| Tunicamycin | 4.6969 | 6.011 |  |
| Valeryl salicylate | 169.5428 | 118.3391 |  |
| a-Amanitin | 8.977 | 10.21 |  |
| b-Rubromycin | 88.7 | 93.87 |  |
| indirubin-3′-monoxime | 105.9954 | 124.9767 |  |
